SMILES strings stand for the structures. A value given as a limit tells only on which side of the number the result lay.

The test system of data set [1] is HBV. Kind of data set: Effect on intrahepatic HBV DNA levels in HepG2.2.15 cells (EC50). Format: cell-based. As to conditions: Hepatitis B virus, 144 h, 6 days, intrahepatic HBV DNA by qPCR, read-out: Anti-HBV DNA (EC50). The protocol:
HepG2.2.15 cells were treated with compounds, at various concentrations in 10% FCS containing medium, at 37° C. for three days. After that the medium was removed and fresh medium containing the compound was added to the cells for another 3 days. After 6 days of treatment, intrahepatic HBV DNA from cell lysates were isolated. Then qPCR reaction of DNA was performed to measure total HBV DNA levels using specific primer set. The fifty-percent effective concentrations (EC50) for HBV DNA inhibition, relative to no drug controls, was determined using nonlinear fitting curve model. EC50 ranges for HBV DNA inhibition were as follows: A>0.3 μM, B=0.05-0.3 μM, C<0.05 μM (Table B).

Data set [2] can be described thus: Cytotoxicity (MTT) in HepG2.2.15 cells. Format: cell-based. The conditions noted are these: human, 6 days treatment, read-out: HepG2.1.15 cytotoxicity (CC50). The protocol: HepG2.2.15 cells were seeded onto 96-well culture plate and allowed to adhere for 24 hours. The cells were treated with various concentrations of the compounds for 6 days. After treatment, the culture media were discarded and further incubated with serum-free media containing […] of 3-(4,5-dimethylthiazol-2-yl)-2,5-diphenyl tetrazolium bromide (MTT) for 2 hour. The resulting formazan crystals were completely dissolved in dimethyl sulfoxide (DMSO), and then measured absorbance at 570 nm using microplate reader. The concentrations of compounds producing 50% cell death (CC50) were determined from a fitting of concentration-response curve (% cell viability versus concentration) to a four-parameter equation.

In a further data set the target is T1, HBV core protein (Cp149) (Hepatitis B virus genotype D subtype ayw, UniProt P03146).
T1 construct: HBV core C-terminally truncated protein (HBV Cp149); made in house
Kind of data set: HBV capsid assembly by size exclusion chromatography (SEC). The format is biochemical. The conditions noted are these: 50 μM compound, 15 μM Cp149, 16 hours at 21° C.

Data set [3] deals with HBV. Kind of data set: In vitro anti-HBV activity in HepG2.2.15 cell line (intracellular HBV DNA by qPCR at 1 μM). The format is cell-based. As to conditions: Hepatitis B virus, 144 h; HepG2.2.15 cells, 1 μM compound, 6 days, intracellular HBV DNA as percentage compared to vehicle control (0.5% DMSO). In outline: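 Intracellular HBV DNA was quantified by qPCR and given as percent of vehicle (0.5% DMSO), grouped into letter ranges. Stably transfected HepG2.2.15 cells had 6 days of exposure to 1 μM compound, with medium and compound renewed after day 3.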

T1 sequence (P03146 1-149): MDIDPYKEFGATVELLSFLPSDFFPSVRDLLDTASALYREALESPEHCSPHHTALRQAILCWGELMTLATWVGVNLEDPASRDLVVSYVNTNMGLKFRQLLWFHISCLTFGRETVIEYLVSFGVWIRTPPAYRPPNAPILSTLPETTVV

Take `Cc1cc(NC(=O)[C@H]2CCN(C(=O)c3ccc(-c4ccnnc4)[nH]3)[C@H]2C)ccc1F` [Example 102, (2S,3S)—N-(4-fluoro-3-methylphenyl)-2-methyl-1-(5-(pyridazin-4-yl)-1H-pyrrole-2-carbonyl) pyrrolidine-3-carboxamide]: the concentration for a half-maximal effect (EC50) in the data set with HBV [1] was under 50 nM. Besides, the CC50 at 6 days in data set [2] was over 25000 nM. In addition, the “Size of induced capsids based on SEC retention times” value (from here on “Size of induced capsids based”) at HBV core protein (Cp149) is given as “induced capsids similar in size to NVR 3-778”. The molecule further yielded an activity at 1 µM in the data set on HBV [3] of under 45%.

On to `Cc1cc(NC(=O)[C@H]2CCN(C(=O)c3ccc(-c4c(C)cnnc4C)[nH]3)C2)ccc1F` [Example 117, (S)-1-(5-(3,5-dimethylpyridazin-4-yl)-1H-pyrrole-2-carbonyl)-N-(4-fluoro-3-methylphenyl)pyrrolidine-3carboxamide], for which the EC50 in the data set on HBV [1] is under 50 nM. The CC50 at 6 days in data set [2] was over 25000 nM. The activity at 1 µM in the data set on HBV [3] lay in the range of 45 to 60%.

Take `O=C(Nc1cc(F)c(F)c(F)c1)[C@H]1CCN(C(=O)c2cc3ccccc3[nH]2)C1` [Example 4, (S)-1-(1H-indole-2-carbonyl)-N-(3,4,5-trifluorophenyl)pyrrolidine-3-carboxamide]: the EC50 in the data set on HBV [1] is over 300 nM. Besides, the CC50 at 6 days in data set [2] is over 25000 nM. Moreover, the “Size of induced capsids based” value at HBV core protein (Cp149) is on record as “induced capsids similar in size to NVR 3-778”. Also, the activity at 1 µM in the data set with HBV [3] was under 45%.

As to `Cc1ncnc(C)c1-c1ccc2c(Cl)c(C(=O)N3CC[C@H](C(=O)Nc4ccc(F)c(C#N)c4)C3)[nH]c2c1` [Example 135, (S)-1-(3-chloro-6-(4,6-dimethylpyrimidin-5-yl)-1H-indole-2-carbonyl)-N-(3-cyano-4-fluorophenyl)pyrrolidine-3-carboxamide], the EC50 with HBV [1] lay in the range of 50 to 300 nM. Moreover, on HBV core protein (Cp149), the “Size of induced capsids based” value was “capsid retention times between BAY 41-4109 and NVR 3-778”. Also, the activity at 1 µM with HBV [3] was under 45%.

`Cc1cc(NC(=O)[C@H]2CCN(C(=O)c3ccc(-c4c(C)cn[nH]c4=O)[nH]3)[C@H]2C)ccc1F` [Example 125, (2S,3S)—N-(4-fluoro-3-methylphenyl)-2-methyl-1-(5-(5-methyl-3-oxo-2,3-dihydropyridazin-4-yl)-1H-pyrrole-2-carbonyl)pyrrolidine-3-carboxamide]: the half-maximal effective concentration (EC50) in the data set on HBV [1] is under 50 nM. For the same molecule, the CC50 at 6 days in data set [2] is over 25000 nM. Also, at HBV core protein (Cp149), the “Size of induced capsids based” value is given as “induced capsids similar in size to NVR 3-778”. Besides, in the data set on HBV [3], the activity at 1 µM was under 45%.

In the case of `C[C@H]1[C@@H](C(=O)Nc2cc(F)c(F)c(F)c2)CCN1C(=O)c1ccc(C#N)[nH]1` [Example 19, (2S,3S)-1-(5-cyano-1H-pyrrole-2-carbonyl)-2-methyl-N-(3,4,5-trifluorophenyl)pyrrolidine-3-carboxamide], in the data set with HBV [1], the EC50 is 50 to 300 nM. In addition, the CC50 at 6 days in data set [2] is over 25000 nM. For the same molecule, the “Size of induced capsids based” value on HBV core protein (Cp149) is listed as “induced capsids similar in size to NVR 3-778”. Further, the activity at 1 µM in the data set with HBV [3] was under 45%.

On to `C[C@H]1[C@@H](C(=O)Nc2cc(F)c(F)c(F)c2)CCN1C(=O)c1nc2cccnc2[nH]1` [Example 70, (2S,3S)-1-(3H-imidazo[4,5-b]pyridine-2-carbonyl)-2-methyl-N-(3,4,5-trifluorophenyl)pyrrolidine-3-carboxamide], for which, in the data set on HBV [1], the EC50 fell in the range of 50 to 300 nM. Besides, the CC50 at 6 days in data set [2] is over 25000 nM. The molecule also registered an activity at 1 µM in the data set on HBV [3] of 45 to 60%.

With `Cc1cc2[nH]ncc2cc1-c1ccc(C(=O)N2CC[C@H](C(=O)Nc3cc(F)c(F)c(F)c3)C2)[nH]1` [Example 122, (S)-1-(5-(6-methyl-1H-indazol-5-yl)-1H-pyrrole-2-carbonyl)-N-(3,4,5-trifluorophenyl) pyrrolidine-3-carboxamide], the EC50 in the data set with HBV [1] fell in the range of 50 to 300 nM. Besides, the CC50 at 6 days in data set [2] was 10000 to 25000 nM. Also, the “Size of induced capsids based” value on HBV core protein (Cp149) is given as “induced capsids similar in size to NVR 3-778”. Further, in the data set with HBV [3], the activity at 1 µM was under 45%.

Regarding `Cc1cc(NC(=O)[C@H]2CCN(C(=O)c3ccc(-c4c(C)cc[nH]c4=O)[nH]3)[C@H]2C)ccc1F` [Example 120, (2S,3S)—N-(4-fluoro-3-methylphenyl)-2-methyl-1-(5-(4-methyl-2-oxo-1,2-dihydropyridin-3-yl)-1H-pyrrole-2-carbonyl)pyrrolidine-3-carboxamide], the EC50 in the data set with HBV [1] lay in the range of 50 to 300 nM. Moreover, in data set [2], the CC50 at 6 days is over 25000 nM. In addition, the “Size of induced capsids based” value at HBV core protein (Cp149) is listed as “induced capsids similar in size to NVR 3-778”. Besides, in the data set with HBV [3], the activity at 1 µM is under 45%.

In the case of `Cc1cnnc(C)c1-c1ccc(C(=O)N2CC[C@H](C(=O)Nc3ccc(F)c(F)c3)C2)[nH]1` [Example 115, (S)—N-(3,4-difluorophenyl)-1-(5-(3,5-dimethylpyridazin-4-yl)-1H-pyrrole-2-carbonyl)pyrrolidine-3-carboxamide], the EC50 in the data set with HBV [1] is 50 to 300 nM. The CC50 at 6 days in data set [2] was over 25000 nM. On HBV core protein (Cp149), the “Size of induced capsids based” value is “induced capsids similar in size to NVR 3-778”. The activity at 1 µM in the data set with HBV [3] was under 45%.

Regarding `Cc1cc(NC(=O)[C@H]2CCN(C(=O)c3ccc(-c4c(C)n[nH]c4C)[nH]3)[C@H]2C)ccc1F` [Example 103, (2S,3S)-1-(5-(3,5-dimethyl-1H-pyrazol-4-yl)-1H-pyrrole-2-carbonyl)-N-(4-fluoro-3-methylphenyl)-2-methylpyrrolidine-3-carboxamide], the EC50 with HBV [1] was under 50 nM. The CC50 at 6 days in data set [2] fell in the range of 10000 to 25000 nM. In addition, the “Size of induced capsids based” value at HBV core protein (Cp149) was “induced capsids similar in size to NVR 3-778”. The activity at 1 µM in the data set with HBV [3] was under 45%.

Regarding `Cc1ncnc(C)c1-c1ccc2c(Cl)c(C(=O)N3CC[C@H](C(=O)Nc4ccc(F)c(C#N)c4)[C@@H]3C)[nH]c2c1` [Example 138, (2S,3S)-1-(3-chloro-6-(4,6-dimethylpyrimidin-5-yl)-1H-indole-2-carbonyl)-N-(3-cyano-4-fluorophenyl)-2-methylpyrrolidine-3-carboxamide], in the data set with HBV [1], the EC50 is 50 to 300 nM. Further, the cytotoxic concentration (CC50) at 6 days in data set [2] lay in the range of 10000 to 25000 nM. Moreover, the “Size of induced capsids based” value on HBV core protein (Cp149) was “capsid retention times between BAY 41-4109 and NVR 3-778”. The same molecule had an activity at 1 µM with HBV [3] of under 45%.

In the case of `C[C@H]1[C@@H](C(=O)Nc2cc(F)c(F)c(F)c2)CCN1C(=O)c1ccc(Cl)[nH]1` [Example 60, (2S,3S)-1-(5-chloro-1H-pyrrole-2-carbonyl)-2-methyl-N-(3,4,5-trifluorophenyl)pyrrolidine-3-carboxamide], the EC50 in the data set on HBV [1] lay within 50 to 300 nM. For the same molecule, the CC50 at 6 days in data set [2] was over 25000 nM. Moreover, the “Size of induced capsids based” value on HBV core protein (Cp149) is “induced capsids similar in size to NVR 3-778”. Besides, the activity at 1 µM in the data set with HBV [3] was under 45%.

Take `Cc1cnnc(C)c1-c1ccc(C(=O)N2CC[C@H](C(=O)Nc3ccc(F)c(C#N)c3)[C@@H]2C)[nH]1` [Example 116, (2S,3S)—N-(3-cyano-4-fluorophenyl)-1-(5-(3,5-dimethylpyridazin-4-yl)-1H-pyrrole-2-carbonyl)-2-methylpyrrolidine-3-carboxamide]: in the data set on HBV [1], the EC50 lay within 50 to 300 nM. Besides, the CC50 at 6 days in data set [2] was over 25000 nM. The molecule also registered an activity at 1 µM in the data set with HBV [3] of 45 to 60%.

Turning to `Cc1cc[nH]c(=O)c1-c1ccc(C(=O)N2CC[C@H](C(=O)Nc3ccc(F)c(Cl)c3)[C@@H]2C)[nH]1` [Example 119, (2S,3S)—N-(3-chloro-4-fluorophenyl)-2-methyl-1-(5-(4-methyl-2-oxo-1,2-dihydropyridin-3-yl)-1H-pyrrole-2-carbonyl)pyrrolidine-3-carboxamide], the EC50 in the data set with HBV [1] was in the range of 50 to 300 nM. Besides, in data set [2], the CC50 at 6 days is over 25000 nM. For the same molecule, the activity at 1 µM in the data set on HBV [3] was under 45%.

With `C[C@H]1[C@@H](C(=O)Nc2ccc(F)c(C#N)c2)CCN1C(=O)c1ccc(Cl)[nH]1` [Example 65, (2S,3S)-1-(5-chloro-1H-pyrrole-2-carbonyl)-N-(3-cyano-4-fluorophenyl)-2-methylpyrrolidine-3-carboxamide], the EC50 in the data set with HBV [1] fell in the range of 50 to 300 nM. The CC50 at 6 days in data set [2] was over 25000 nM. Besides, the activity at 1 µM in the data set with HBV [3] is under 45%.

As to `Cc1ncnc(C)c1-c1ccc(C(=O)N2CC[C@H](C(=O)Nc3cc(F)c(F)c(Cl)c3)C2)[nH]1` [Example 100, (S)—N-(3-chloro-4,5-difluorophenyl)-1-(5-(4,6-dimethylpyrimidin-5-yl)-1H-pyrrole-2-carbonyl)pyrrolidine-3-carboxamide], in the data set with HBV [1], the EC50 was under 50 nM. In addition, in data set [2], the cytotoxic concentration (CC50) at 6 days is 10000 to 25000 nM. Besides, the activity at 1 µM with HBV [3] is under 45%.

In the case of `Cc1n[nH]c(C)c1-c1ccc(C(=O)N2CC[C@H](C(=O)Nc3ccc(F)c(Cl)c3)[C@@H]2C)[nH]1` [Example 105, (2S,3S)—N-(3-chloro-4-fluorophenyl)-1-(5-(3,5-dimethyl-1H-pyrazol-4-yl)-1H-pyrrole-2-carbonyl)-2-methylpyrrolidine-3-carboxamide], the EC50 in the data set on HBV [1] is under 50 nM. In data set [2], the CC50 at 6 days was under 10000 nM. Besides, in the data set on HBV [3], the activity at 1 µM was under 45%.

Values taken from patent US20230391752A1, “PYRROLIDINE-3-CARBOXAMIDE DERIVATIVES AND RELATED USES” (Chulalongkorn University, priority 2020, published 2023).
